Results reported in ChEMBL document CHEMBL3727350, “Agents and methods for treating ischemic and other diseases” (2014).
Activity calls are given as the source filed them. No cut-off for these calls is given here.

Columns and labels:
HEK293 = experiment: Effect on Tet-induced Flag-tagged mouse TRPM7 expression in HEK293 cells; format: functional, cell-based; details: Homo sapiens
[1] = molecular target: Transient receptor potential cation channel subfamily M member 7 (Rattus norvegicus) (UniProt Q925B3); experiment: Inhibition of TRPM7 in rat H9c2 cells assessed as protection against oxygen glucose deprivation-induced cell death at 0.05 to 5 uM applied during OGD; format: cell-based
Chain of Transient receptor potential cation channel subfamily M member 7 (Rattus norvegicus) (Q925B3 whole entry): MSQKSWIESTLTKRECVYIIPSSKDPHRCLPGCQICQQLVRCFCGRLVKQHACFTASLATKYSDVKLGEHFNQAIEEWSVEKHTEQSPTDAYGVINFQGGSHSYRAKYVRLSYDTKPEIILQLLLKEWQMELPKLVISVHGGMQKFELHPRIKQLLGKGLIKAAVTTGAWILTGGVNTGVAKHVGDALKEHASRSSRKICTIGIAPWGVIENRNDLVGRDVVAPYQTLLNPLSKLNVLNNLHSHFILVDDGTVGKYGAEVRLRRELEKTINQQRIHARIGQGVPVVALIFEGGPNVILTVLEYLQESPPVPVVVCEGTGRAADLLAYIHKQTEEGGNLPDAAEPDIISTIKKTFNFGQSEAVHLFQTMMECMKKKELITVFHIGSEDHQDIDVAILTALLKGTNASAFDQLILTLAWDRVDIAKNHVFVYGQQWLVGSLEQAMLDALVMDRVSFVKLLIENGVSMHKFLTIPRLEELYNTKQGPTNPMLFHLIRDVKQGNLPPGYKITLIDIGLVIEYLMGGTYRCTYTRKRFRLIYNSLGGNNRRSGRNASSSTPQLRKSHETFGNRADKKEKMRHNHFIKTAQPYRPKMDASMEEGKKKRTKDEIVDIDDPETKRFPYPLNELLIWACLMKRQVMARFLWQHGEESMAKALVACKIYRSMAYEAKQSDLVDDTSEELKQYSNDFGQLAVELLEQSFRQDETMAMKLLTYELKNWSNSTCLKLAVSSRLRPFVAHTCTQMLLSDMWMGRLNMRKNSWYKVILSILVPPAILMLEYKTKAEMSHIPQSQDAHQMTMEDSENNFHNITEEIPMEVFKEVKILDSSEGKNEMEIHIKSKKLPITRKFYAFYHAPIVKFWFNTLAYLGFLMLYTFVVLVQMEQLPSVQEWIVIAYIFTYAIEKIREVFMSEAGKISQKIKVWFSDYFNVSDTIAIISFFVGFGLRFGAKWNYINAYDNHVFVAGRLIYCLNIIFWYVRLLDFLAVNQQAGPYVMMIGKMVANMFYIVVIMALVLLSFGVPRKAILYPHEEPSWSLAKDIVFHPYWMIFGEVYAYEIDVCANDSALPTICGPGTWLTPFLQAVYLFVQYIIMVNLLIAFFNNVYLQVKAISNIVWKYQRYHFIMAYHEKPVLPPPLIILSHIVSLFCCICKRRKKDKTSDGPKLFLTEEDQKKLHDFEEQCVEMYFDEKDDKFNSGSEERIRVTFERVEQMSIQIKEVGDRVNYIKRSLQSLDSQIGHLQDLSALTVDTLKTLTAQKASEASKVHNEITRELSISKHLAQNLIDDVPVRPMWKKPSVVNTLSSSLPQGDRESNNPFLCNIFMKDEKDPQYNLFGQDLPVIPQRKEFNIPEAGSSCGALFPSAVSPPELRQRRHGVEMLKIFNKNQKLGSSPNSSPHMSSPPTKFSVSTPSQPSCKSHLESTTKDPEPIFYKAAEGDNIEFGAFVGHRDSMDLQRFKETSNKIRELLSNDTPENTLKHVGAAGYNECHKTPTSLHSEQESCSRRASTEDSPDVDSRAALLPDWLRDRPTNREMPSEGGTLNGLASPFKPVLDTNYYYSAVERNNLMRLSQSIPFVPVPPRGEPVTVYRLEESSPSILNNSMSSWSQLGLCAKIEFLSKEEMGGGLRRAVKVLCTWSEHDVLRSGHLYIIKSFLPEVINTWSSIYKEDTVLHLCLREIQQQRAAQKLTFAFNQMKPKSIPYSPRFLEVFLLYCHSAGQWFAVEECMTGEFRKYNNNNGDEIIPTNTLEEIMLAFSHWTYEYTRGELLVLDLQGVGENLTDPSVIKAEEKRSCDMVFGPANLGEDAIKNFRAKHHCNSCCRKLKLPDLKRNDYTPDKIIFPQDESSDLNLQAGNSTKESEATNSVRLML

[2] = Inhibition of cell proliferation of mouse NIH/3T3 cells at 1.25 to 10 uM incubated for 72 hrs by propidium iodide staining assay; format: cell-based; details: nih3t3, 72 h
[3] = molecular target: Transient receptor potential cation channel subfamily M member 7 (Rattus norvegicus) (UniProt Q925B3); experiment: Inhibition of TRPM7 in Sprague-Dawley rat retinal explants subjected to 1 hr oxygen-glucose deprivation assessed as reduction in retinal ischemia at 5 uM
Mus musculus [4] = organism: Mus musculus; experiment: Inhibition of sodium channel in mouse cortical neurons assessed as effect on Na+ currents
[5] = molecular target: Transient receptor potential cation channel subfamily M member 7 (Mus musculus) (UniProt Q923J1); experiment: Inhibition of Tet-induced Flag-tagged mouse TRPM7 expressed in HEK293 cells assessed as inhibition of channel-mediated cell death in presence of Mg2+ incubated for 24 to 48 hrs by propidium iodide uptake assay; format: cell-based; set-up: concentration or dose not given beside the values
Chain of Transient receptor potential cation channel subfamily M member 7 (Mus musculus) (Q923J1 whole entry): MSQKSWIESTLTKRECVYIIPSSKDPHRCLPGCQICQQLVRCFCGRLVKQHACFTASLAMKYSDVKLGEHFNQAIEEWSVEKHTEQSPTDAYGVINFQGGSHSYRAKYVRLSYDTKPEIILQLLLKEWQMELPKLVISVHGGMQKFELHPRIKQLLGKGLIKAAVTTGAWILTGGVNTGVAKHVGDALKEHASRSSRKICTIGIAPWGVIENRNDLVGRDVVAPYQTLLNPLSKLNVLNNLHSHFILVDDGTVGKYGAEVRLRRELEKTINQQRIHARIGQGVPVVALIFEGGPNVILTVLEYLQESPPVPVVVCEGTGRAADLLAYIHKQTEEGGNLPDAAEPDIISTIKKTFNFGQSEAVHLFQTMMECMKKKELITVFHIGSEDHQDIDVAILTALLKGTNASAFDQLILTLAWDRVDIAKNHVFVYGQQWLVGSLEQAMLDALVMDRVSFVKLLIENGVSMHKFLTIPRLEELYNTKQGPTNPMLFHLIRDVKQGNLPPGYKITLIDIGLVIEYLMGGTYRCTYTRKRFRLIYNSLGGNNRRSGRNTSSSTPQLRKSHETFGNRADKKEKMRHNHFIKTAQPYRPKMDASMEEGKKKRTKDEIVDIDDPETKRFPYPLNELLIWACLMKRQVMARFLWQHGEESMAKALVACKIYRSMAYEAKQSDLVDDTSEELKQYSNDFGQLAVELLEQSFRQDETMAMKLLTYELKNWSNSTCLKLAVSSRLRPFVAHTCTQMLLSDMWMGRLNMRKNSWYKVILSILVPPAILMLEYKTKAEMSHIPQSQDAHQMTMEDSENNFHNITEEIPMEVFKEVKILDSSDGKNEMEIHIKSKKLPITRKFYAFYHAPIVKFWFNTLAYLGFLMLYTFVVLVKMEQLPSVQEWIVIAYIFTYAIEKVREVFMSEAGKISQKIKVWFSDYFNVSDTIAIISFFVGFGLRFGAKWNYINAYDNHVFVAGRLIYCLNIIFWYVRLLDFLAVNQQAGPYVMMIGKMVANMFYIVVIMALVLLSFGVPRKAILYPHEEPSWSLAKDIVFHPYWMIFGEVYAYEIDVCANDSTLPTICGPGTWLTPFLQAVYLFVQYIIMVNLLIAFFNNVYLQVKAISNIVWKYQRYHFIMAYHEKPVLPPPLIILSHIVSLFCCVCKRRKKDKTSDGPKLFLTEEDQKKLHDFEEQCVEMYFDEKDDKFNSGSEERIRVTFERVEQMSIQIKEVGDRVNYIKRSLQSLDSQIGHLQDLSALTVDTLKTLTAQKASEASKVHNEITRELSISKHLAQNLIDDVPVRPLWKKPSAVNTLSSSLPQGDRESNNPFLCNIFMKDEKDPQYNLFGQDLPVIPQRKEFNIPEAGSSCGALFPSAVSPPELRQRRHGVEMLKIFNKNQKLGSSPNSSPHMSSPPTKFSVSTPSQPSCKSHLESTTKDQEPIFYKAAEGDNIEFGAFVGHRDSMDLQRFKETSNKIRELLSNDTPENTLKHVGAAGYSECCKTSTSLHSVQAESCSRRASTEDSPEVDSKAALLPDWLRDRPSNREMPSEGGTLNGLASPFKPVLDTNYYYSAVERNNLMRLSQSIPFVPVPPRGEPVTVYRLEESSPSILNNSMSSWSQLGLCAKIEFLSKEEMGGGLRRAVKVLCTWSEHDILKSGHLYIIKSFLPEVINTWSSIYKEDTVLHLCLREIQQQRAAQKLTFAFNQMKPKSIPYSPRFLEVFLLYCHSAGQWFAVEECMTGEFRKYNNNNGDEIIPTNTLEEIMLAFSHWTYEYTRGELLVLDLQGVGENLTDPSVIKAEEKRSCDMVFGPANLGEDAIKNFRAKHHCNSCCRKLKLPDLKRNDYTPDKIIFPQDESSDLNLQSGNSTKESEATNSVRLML

[6] = molecular target: Transient receptor potential cation channel subfamily M member 7 (Mus musculus) (UniProt Q923J1); experiment: Inhibition of Tet-induced Flag-tagged mouse TRPM7 expressed in HEK293 cells assessed as reduction in channel currents at 0.3 to 30 uM by whole cell patch clamp assay; format: cell-based
[7] = molecular target: Transient receptor potential cation channel subfamily M member 7 (Rattus norvegicus) (UniProt Q925B3); experiment: Inhibition of TRPM7 in rat H9C2 cells assessed as reduction in channel currents at 0.3 to 30 uM by whole cell patch clamp assay; format: cell-based
Mus musculus [8] = organism: Mus musculus; experiment: Inhibition of calcium channel in mouse cortical neurons assessed as effect on Ca2+ currents; format: functional
Mus musculus [9] = organism: Mus musculus; experiment: Inhibition of potassium channel in mouse cortical neurons assessed as reduction in potassium currents
[10] = molecular target: Transient receptor potential cation channel subfamily M member 7 (Mus musculus) (UniProt Q923J1); experiment: Inhibition of TRPM7 in mouse primary neuronal cells exposed to oxygen glucose deprivation condition for 1 to 3 hrs assessed as reduction in TRPM7-mediated anoxic cell death dosed before oxygen glucose deprivation condition by propidium iodide uptake assay; details: Primary neuron
[11] = molecular target: Transient receptor potential cation channel subfamily M member 7 (Mus musculus) (UniProt Q923J1); experiment: Inhibition of TRPM7 in mouse primary neuronal cells exposed to oxygen glucose deprivation condition for 1 to 3 hrs assessed as reduction in TRPM7-mediated anoxic cell death dosed after oxygen glucose deprivation condition by propidium iodide uptake assay; details: Primary neuron
[12] = molecular target: Transient receptor potential cation channel subfamily M member 7 (Rattus norvegicus) (UniProt Q925B3); experiment: Inhibition of TRPM7 in rat H9C2 cells exposed to oxygen glucose deprivation condition for 1 to 6 hrs assessed as reduction in TRPM7-mediated anoxic cell death in presence of 1 uM nifedipine by propidium iodide uptake assay; format: cell-based
Mus musculus [13] = experiment: Toxicity in mouse up to 150 uM, iv; format: organism-based; details: in vivo
[14] = molecular target: Transient receptor potential cation channel subfamily M member 7 (Rattus norvegicus) (UniProt Q925B3); experiment: Inhibition of TRPM7 in cultured rat retinal ganglion cells exposed to oxygen glucose deprivation condition for 3 hrs assessed as protection against TRPM7-mediated cell death at by propidium iodide uptake assay; set-up: scale not given: the % may be the effect or the level left
[15] = molecular target: Transient receptor potential cation channel subfamily M member 7 (Rattus norvegicus) (UniProt Q925B3); experiment: Inhibition of TRPM7 in rat retinal explants exposed to oxygen glucose deprivation condition for 1 hr assessed as protection against TRPM7-mediated cell death at by propidium iodide uptake assay
Y79 = experiment: Inhibition of cell proliferation of human Y79 cells at 10 uM incubated for 48 to 96 hrs; format: functional
MCF7 = experiment: Inhibition of cell proliferation of human MCF7 cells at 10 uM incubated for 48 to 96 hrs; format: functional
MDA-MB-231 [16] = experiment: Inhibition of cell proliferation of human MDA-MB-231 cells at 10 uM incubated for 48 to 96 hrs; format: functional
[17] = Inhibition of cell proliferation of mouse B16-F1 cells at 10 uM incubated for 48 to 96 hrs; format: functional
SW13 [18] = experiment: Inhibition of cell proliferation of human SW13 cells at 10 uM incubated for 48 to 96 hrs; format: functional
HeLa [19] = experiment: Inhibition of cell proliferation of human HeLa cells at 10 uM incubated for 48 to 96 hrs; format: functional
[20] = Inhibition of cell proliferation of human WERI cells at 10 uM incubated for 48 to 96 hrs; format: functional
[21] = Inhibition of cell proliferation of mouse B16F10 cells at 10 uM incubated for 48 to 96 hrs; format: functional; details: B16-F10
[22] = molecular target: Transient receptor potential cation channel subfamily M member 7 (Rattus norvegicus) (UniProt Q925B3); experiment: Inhibition of TRPM7 in Sprague-Dawley rat retinal explants dissociated and subjected to 1 hr oxygen-glucose deprivation assessed as reduction in retinal cell death at 1 and 5 uM
[23] = molecular target: Transient receptor potential cation channel subfamily M member 7 (Rattus norvegicus) (UniProt Q925B3); experiment: Inhibition of TRPM7 in rat H9C2 cells exposed to 6 hrs oxygen glucose deprivation condition followed by 2 hrs recovery assessed as reduction in TRPM7-mediated anoxic cell death at 0.05 to 5 uM by propidium iodide uptake assay; format: cell-based
[24] = molecular target: Transient receptor potential cation channel subfamily M member 7 (Mus musculus) (UniProt Q923J1); experiment: Inhibition of TRPM7 in mouse mouse primary cortical neurons exposed to 2 hrs oxygen glucose deprivation condition assessed as reduction in TRPM7-mediated anoxic cell death measured after 20 hrs by propidium iodide uptake assay; format: cell-based; details: Cerebral cortex neuron
[25] = molecular target: Transient receptor potential cation channel subfamily M member 7 (Mus musculus) (UniProt Q923J1); experiment: Inhibition of TRPM7 in mouse mouse primary cortical neurons exposed to 1 hrs oxygen glucose deprivation condition assessed as reduction in TRPM7-mediated anoxic cell death at 1.25 to 10 uM measured after 20 hrs by propidium iodide uptake assay; format: cell-based; details: Cerebral cortex neuron
[26] = molecular target: Transient receptor potential cation channel subfamily M member 7 (Mus musculus) (UniProt Q923J1); experiment: Inhibition of TRPM7 in mouse AML12 cells assessed as protection against oxygen glucose deprivation-induced cell death at 0.5 to 5 uM; format: cell-based
[27] = molecular target: Transient receptor potential cation channel subfamily M member 7 (Rattus norvegicus) (UniProt Q925B3); experiment: Inhibition of TRPM7 in rat H9c2 cells assessed as protection against oxygen glucose deprivation-induced cell death at 0.05 to 5 uM; format: cell-based
[28] = molecular target: Transient receptor potential cation channel subfamily M member 7 (Rattus norvegicus) (UniProt Q925B3); experiment: Inhibition of TRPM7 in rat H9c2 cells assessed as protection against oxygen glucose deprivation-induced cell death at 0.05 to 5 uM in presence of 1 uM nifedipine; format: cell-based
[29] = molecular target: Transient receptor potential cation channel subfamily M member 7 (Rattus norvegicus) (UniProt Q925B3); experiment: Inhibition of TRPM7 in rat H9c2 cells assessed as protection against oxygen glucose deprivation-induced cell death at 0.05 to 5 uM pre-treated for 24 hrs before OGD; format: cell-based
[30] = molecular target: Transient receptor potential cation channel subfamily M member 7 (Rattus norvegicus) (UniProt Q925B3); experiment: Inhibition of TRPM7 in rat H9c2 cells assessed as protection against oxygen glucose deprivation-induced cell death at 0.05 to 5 uM pre-treated for 24 hrs before OGD in presence of 1 uM nifedipine; format: cell-based
HeLa [31] = experiment: Inhibition of cell proliferation of human HeLa cells at 1.25 to 10 uM incubated for 48 hrs by BrdU incorporation assay; format: functional, cell-based
SW13 [32] = experiment: Inhibition of cell proliferation of human SW13 cells at 1.25 to 10 uM incubated for 48 hrs by BrdU incorporation assay; format: functional, cell-based
SW13 [33] = experiment: Inhibition of cell proliferation of human SW13 cells at 1.25 to 10 uM incubated for 72 hrs by SRB assay; format: functional, cell-based
MDA-MB-231 [34] = experiment: Inhibition of cell proliferation of human MDA-MB-231 cells at 1.25 to 10 uM incubated for 72 hrs by SRB assay; format: functional, cell-based
B16-F1 = experiment: Inhibition of cell proliferation of mouse B16-F1 cells at 1.25 to 10 uM incubated for 72 hrs by SRB assay; format: functional, cell-based
B16-F10 = experiment: Inhibition of cell proliferation of mouse B16F10 cells at 1.25 to 10 uM incubated for 72 hrs by SRB assay; format: functional, cell-based
H9c2 [35] = experiment: Toxicity against rat H9c2 cells at 10 uM; format: cell-based; details: h9c2, 10 µM
H9c2 [36] = experiment: Toxicity against rat H9c2 cells at 5 uM; format: cell-based; details: h9c2, 5 µM

With `COC(=O)C1=C(C)NC(C)=C(C(=O)OCCN(C)Cc2ccccc2)C1c1cccc([N+](=O)[O-])c1` (stereo not drawn) the Activity (HEK293) was “inactive”.

With `Cc1ccc2c(c1)CCCN2C(=O)c1sc2ccccc2c1Cl` the inhibition [1] was “Active”, the Activity [2] was “Non-toxic” and the inhibition [3] was “Active”. For the same molecule, the inhibition (Mus musculus [4]) was “inactive”, the inhibition ([5]; concentration not given here) was 80% and the inhibition [6] was “Active”. The inhibition [7] was “Active”, the inhibition (Mus musculus [8]) was “inactive” and the inhibition (Mus musculus [9]) was “Active”. For the same molecule, the inhibition [10] was “Active”, the inhibition [11] was “Active” and the inhibition [12] was “Active”. The Activity (Mus musculus [13]) was “Non-toxic”, the Activity [14] was 66% and the inhibition [15] was “Active”. The inhibition at 10 µM (Y79) was greater than 20%, the inhibition at 10 µM (MCF7) was greater than 20% and the inhibition at 10 µM (MDA-MB-231 [16]) was greater than 20%. For the same molecule, the inhibition at 10 µM [17] was greater than 20%, the inhibition at 10 µM (SW13 [18]) was greater than 20% and the inhibition at 10 µM (HeLa [19]) was greater than 20%. For the same molecule, the inhibition at 10 µM [20] was greater than 20%, the inhibition at 10 µM [21] was greater than 20% and the inhibition [22] was “Active”. For the same molecule, the inhibition [23] was “Active”, the inhibition [24] was “Active” and the inhibition [25] was “Active”. The inhibition [26] was “Active”, the inhibition [27] was “Active” and the inhibition [28] was “Active”. The inhibition [29] was “Active” and the inhibition [30] was “Active”.

With `Cc1ccc(-n2c(-c3ccc(Cl)c(C)c3)csc2=N)c(C)c1.Cl` the inhibition (HeLa [31]) was “Active”, the inhibition (SW13 [32]) was “Active” and the inhibition (SW13 [33]) was “Active”. The inhibition (MDA-MB-231 [34]) was “Active”, the inhibition (B16-F1) was “Active” and the inhibition (B16-F10) was “Active”. For the same molecule, the Activity [2] was “Non-toxic”, the inhibition ([5]; concentration not given here) was 80% and the inhibition [6] was “Active”. For the same molecule, the inhibition [7] was “Active”, the inhibition [10] was “Active” and the inhibition [11] was “Active”. The inhibition at 10 µM [20] was greater than 20%, the Activity (H9c2 [35]) was “Toxic” and the Activity (H9c2 [36]) was “Non-toxic”. For the same molecule, the inhibition [24] was “Active”.

In the case of `CCN(CC)CCCC(C)Nc1c2ccc(Cl)cc2nc2ccc(OC)cc12` (stereo not drawn), the Activity (HEK293) is reported as “inactive”.

For `COc1cccc(OC)c1OCCNCC1CSc2ccccc2O1` (stereo not drawn), the inhibition [5] was “Dose-dependent effect” and the Activity (HEK293) was “inactive”.

With `Ic1ccccc1CN[C@@H]1C2CCN(CC2)[C@@H]1C(c1ccccc1)c1ccccc1` (relative stereo) the inhibition [5] was “Dose-dependent effect” and the Activity (HEK293) was “inactive”.

For `C[n+]1cc2c3c(ccc2c2ccc4cc5c(cc4c21)OCO5)OCO3`, the Activity (HEK293) was “inactive”.

For `COc1cc2c(cc1OC)-c1c/c(=N\c3c(C)cc(C)cc3C)n(C)c(=O)n1CC2`, the inhibition [5] was “Dose-dependent effect” and the Activity (HEK293) was “inactive”.

For `O=C1c2c(O)ccc(O)c2C(=O)c2c(NCCNCCO)ccc(NCCNCCO)c21`, the Activity (HEK293) was “inactive”.

For `O=C(O)c1cc(=O)cc(C(=O)O)[nH]1`, the Activity (HEK293) was “inactive”.

In the case of `COc1ccc(OC)c(SCc2nnc(-c3ccc([N+](=O)[O-])c(C)c3)o2)c1`, the inhibition ([5]; concentration not given here) is reported as 80%, the inhibition [6] is reported as “Active” and the inhibition [7] is reported as “Active”. For the same molecule, the inhibition [10] was “Active”, the inhibition [11] was “Active” and the inhibition at 10 µM [20] was greater than 20%. For the same molecule, the inhibition [24] was “Active”.

For `COc1ccccc1N1CCN(CC(O)COc2cccc3ccccc23)CC1` (stereo not drawn), the inhibition [5] was “Dose-dependent effect” and the Activity (HEK293) was “inactive”.
